15 molecules from patent publication US20080207725A1, “Phenyl-Pyrazole Derivatives as Non-Steroidal Glucocorticoid Receptor Ligands” (Glaxo Group Limited, a corporation, priority 2005, published 2008) can be followed below.

The test system of the test is NFkB activity. Kind of test: Glucocorticoid mediated transrepression of NFkB activity (A549 ELAM promoter SPAP reporter, TNFα stimulated). Particulars: Human A549 lung epithelial cells, 3 ng/ml human recombinant TNFα, 16 hours; read-out: pEC50, transrepression of NFkB activity (converted). It is filed as cell-based. From the text:
Human A549 lung epithelial cells were engineered to contain a secreted placental alkaline phosphatase gene under the control of the distal region of the NFkB dependent ELAM promoter as previously described in Ray, K. P., Farrow, S., Daly, M., Talabot, F. and Searle, N. “Induction of the E-selectin promoter by interleukin 1 and tumour necrosis factor alpha, and inhibition by glucocorticoids” Biochemical Journal (1997) 328: 707-15.
Compounds were solvated and diluted in DMSO, and transferred directly into assay plates such that the final concentration of DMSO was 0.7%. Following the addition of cells (40K per well), plates were incubated for 1 hour prior to the addition of 3 ng/ml human recombinant TNFα. Following continued incubation for 16 hours, alkaline phosphatase activity was determined by measuring the change in optical density at 405 nm with time following the addition of 0.7 volumes of assay buffer (1 mg/ml p-nitrophenylphosphate dissolved in 1M diethanolamine, 0.28M NaCl, 0.5 mM MgCl2). Dose response curves were constructed from which EC50 values were estimated.

Each structure is given as a SMILES string.

For `COc1ccc(F)cc1C(C)(C)C[C@@](O)(CNC(=O)c1cnn(-c2ccccc2F)c1N)C(F)(F)F` [Example 3, (2R)-5-Amino-N-[4-[5-fluoro-2-(methyloxy)phenyl]-2-hydroxy-4-methyl-2-(trifluoromethyl)pentyl]-1-(2-fluorophenyl)-1H-pyrazole-4-carboxamide], the EC50 was less than 3.16 nM.

As to `CC(C)(C[C@@](O)(CNC(=O)c1cnn(-c2ccc(F)cc2)c1N)C(F)(F)F)c1cc(F)ccc1O` [Example 7, (2R)-5-Amino-N-[4-(5-fluoro-2-hydroxyphenyl)-2-hydroxy-4-methyl-2-(trifluoromethyl)pentyl]-1-(4-fluorophenyl)-1H-pyrazole-4-carboxamide], the EC50 is less than 3.16 nM.

With `CC(C)(C[C@@](O)(CNC(=O)c1cnn(-c2ccccc2F)c1N)C(F)(F)F)c1cc(F)ccc1O` [Example 8, (2R)-5-Amino-N-[4-(5-fluoro-2-hydroxyphenyl)-2-hydroxy-4-methyl-2-(trifluoromethyl)pentyl]-1-(2-fluorophenyl)-1H-pyrazole-4-carboxamide], the EC50 is less than 3.16 nM.

In the case of `COc1ccc(F)cc1C(C)(C)C[C@@](O)(CNC(=O)c1cnn(-c2ccc(F)cc2F)c1N)C(F)(F)F` [Example 4, (2R)-5-Amino-1-(2,4-difluorophenyl)-N-[4-[5-fluoro-2-(methyloxy)phenyl]-2-hydroxy-4-methyl-2-(trifluoromethyl)pentyl]-1H-pyrazole-4-carboxamide], the EC50 was less than 3.16 nM.

`CC(C)(C[C@@](O)(CNC(=O)c1cnn(-c2ccc(F)cc2F)c1N)C(F)(F)F)c1cc(F)ccc1O` [Example 9, (2R)-5-Amino-1-(2,4-difluorophenyl)-N-[4-(5-fluoro-2-hydroxyphenyl)-2-hydroxy-4-methyl-2-(trifluoromethyl)pentyl]-1H-pyrazole-4-carboxamide]: the EC50 is less than 3.16 nM.

Take `CC(C)(C[C@@](O)(CNC(=O)c1cnn(-c2ccc(F)cc2)c1N)C(F)(F)F)c1cccc2c1OCC2` [Example 13, (2R)-5-Amino-N-[4-(2,3-dihydro-1-benzofuran-7-yl)-2-hydroxy-4-methyl-2-(trifluoromethyl)pentyl]-1-(4-fluorophenyl)-1H-pyrazole-4-carboxamide]: the EC50 was less than 3.16 nM.

In the case of `CC(C)(C[C@@](O)(CNC(=O)c1cnn(-c2ccccc2)c1N)C(F)(F)F)c1cccc2c1OCC2` [Example 1, (2R)-5-Amino-N-[4-(2,3-dihydro-1-benzofuran-7-yl)-2-hydroxy-4-methyl-2-(trifluoromethyl)pentyl]-1-phenyl-1H-pyrazole-4-carboxamide], the EC50 was less than 3.16 nM.

Turning to `CC(C)(C[C@@](O)(CNC(=O)c1cnn(-c2ccc(Cl)cc2)c1N)C(F)(F)F)c1cccc2c1OCC2` [Example 15, (2R)-5-Amino-1-(4-chlorophenyl)-N-[4-(2,3-dihydro-1-benzofuran-7-yl)-2-hydroxy-4-methyl-2-(trifluoromethyl)Pentyl]-1H-pyrazole-4-carboxamide], the EC50 is less than 3.16 nM.

With `COc1ccc(F)cc1C(C)(C)C[C@@](O)(CNC(=O)c1cnn(-c2ccc(Cl)cc2)c1N)C(F)(F)F` [Example 5, (2R)-5-Amino-1-(4-chlorophenyl)-N-[4-[5-fluoro-2-(methyloxy)phenyl]-2-hydroxy-4-methyl-2-(trifluoromethyl)pentyl]-1H-pyrazole-4-carboxamide], the EC50 is less than 3.16 nM.

Take `CC(C)(C[C@@](O)(CNC(=O)c1cnn(-c2ccccc2)c1N)C(F)(F)F)c1cc(F)ccc1O` [Example 11, (2R)-5-Amino-N-[4-(5-fluoro-2-hydroxyphenyl)-2-hydroxy-4-methyl-2-(trifluoromethyl)pentyl]-1-phenyl-1H-pyrazole-4-carboxamide]: the EC50 was less than 3.16 nM.

As to `CC(C)(C[C@@](O)(CNC(=O)c1cnn(-c2ccccc2F)c1N)C(F)(F)F)c1cccc2c1OCC2` [Example 12, (2R)-5-Amino-N-[4-(2,3-dihydro-1-benzofuran-7-yl)-2-hydroxy-4-methyl-2-(trifluoromethyl)pentyl]-1-(2-fluorophenyl)-1H-pyrazole-4-carboxamide], the EC50 was less than 3.16 nM.

As for `CC(C)(C[C@@](O)(CNC(=O)c1cnn(-c2ccc(F)cc2F)c1N)C(F)(F)F)c1cccc2c1OCC2` [Example 14, (2R)-5-Amino-1-(2,4-difluorophenyl)-N-[4-(2,3-dihydro-1-benzofuran-7-yl)-2-hydroxy-4-methyl-2-(trifluoromethyl)pentyl]-1H-pyrazole-4-carboxamide], the EC50 is less than 3.16 nM.

For the molecule `COc1ccc(F)cc1C(C)(C)C[C@@](O)(CNC(=O)c1cnn(-c2ccc(F)cc2)c1N)C(F)(F)F` [Example 2, (2R)-5-Amino-N-[4-[5-fluoro-2-(methyloxy)phenyl]-2-hydroxy-4-methyl-2-(trifluoromethyl)pentyl]-1-(4-fluorophenyl)-1H-pyrazole-4-carboxamide], the EC50 is less than 3.16 nM.

With `CC(C)(C[C@@](O)(CNC(=O)c1cnn(-c2ccc(Cl)cc2)c1N)C(F)(F)F)c1cc(F)ccc1O` [Example 10, (2R)-5-Amino-1-(4-chlorophenyl)-N-[4-(5-fluoro-2-hydroxyphenyl)-2-hydroxy-4-methyl-2-(trifluoromethyl)pentyl]-1H-pyrazole-4-carboxamide], the EC50 was less than 3.16 nM.

As to `COc1ccc(F)cc1C(C)(C)C[C@@](O)(CNC(=O)c1cnn(-c2ccccc2)c1N)C(F)(F)F` [Example 6, (2R)-5-Amino-N-[4-[5-fluoro-2-(methyloxy)phenyl]-2-hydroxy-4-methyl-2-(trifluoromethyl)pentyl]-1-phenyl-1H-pyrazole-4-carboxamide], the EC50 was less than 3.16 nM.
